Tested on: HUVECs
Experiment: Metabolite quantification in Syntenin-1 treated HUVECs (colorimetric assay)
Type: cell-based, human
Details: Syntenin-1 1000 ng/ml 24 h, HIF1αi 2 μM, mTORi 1 μM, FIGS. 13I-K
Method: HUVECs were treated with 20 Syntenin-1 (1000 ng/ml) for 0-60 mins to detect expression of GLUT1. HK2. PFK2, cMYC. HIF1α, and LDHA (FIG. 13B) or 0-48 h to detect HK2, PFK2, mTOR/RAPTOR and LDHA (FIG. 13C) and actin was visualized as equal loading, (n=3). HUVECs were treated with PBS or Syntenin-1 (1000 ng/ml) in the presence or absence of 2-DG (5 mM), cMYCi (50 μM) and/or mTORi (1 μM) or HIF1αi (2 μM) to quantify transcription of HIF1α (FIG. 13E, n=10), RAPTOR (FIG. 13F, n=7). TNF (FIG. 13H, n=5). […] HUVECs were treated with PBS or Syntenin-1 (1000 ng/ml) in the presence or absence of SDC-1 Ab (SDCab: 1:100). […] Data are presented as mean±SEM; significant differences were determined by the Mann-Whitney test, 2way ANOVA, or one-way ANOVA. *p<0.05. **p<0.01, ***p<0.001, ****p<0.0001.
FIGS. 20A-F show blood Syntenin-1 and SDC-1 relative levels are unaffected by RA therapy and glycolytic metabolites can modulate inflammatory factors and oxidative metabolites in Syntenin-1 reprogrammed endothelial cells. Relative expression of Syntenin-1 (FIG. 20A) or SDC-1 (FIG. 20B) was determined by RNAseq (Lewis M J, et al. Cell reports. 2019; 28:2455-2470 e2455) in blood from RA non-responsive (Non-R)(ΔDAS28≤0.6, n=16) or those with moderate (ΔDAS28≤1.2 & >0.6, n=22) or good response (ΔDAS28>1.2, n=21). […]
Metabolite quantification. […]

CO[C@H]1C[C@@H]2CC[C@@H](C)[C@@](O)(O2)C(=O)C(=O)N2CCCC[C@H]2C(=O)O[C@H]([C@H](C)C[C@@H]2CC[C@@H](OCCO)[C@H](OC)C2)CC(=O)[C@H](C)/C=C(\C)[C@@H](O)[C@@H](OC)C(=O)[C@H](C)C[C@H](C)/C=C/C=C/C=C/1C [mTORi, Everolimus]
oxidative metabolites, AMPK, PGC-1a, and citrate: unchanged

— patent US20260184807A1, “Methods for Treating Rheumatoid Arthritis Using a Syndecan-1 Inhibitor or Syntenin-1 Inhibitor” (The United States Government as represented by the …, priority 2022, published 2026)
